Test results as given in PubChem BioAssay AID720632 (Broad Institute, 2013).
The source made the active and inactive calls. No rule for the calls is given here.

Target: Caspase-6 (Homo sapiens) (UniProt P55212)
Test: inhibition of CASP6 peptide cleavage – biochemical, VEID-R110 fluorescence, cherry-pick, dose response (AID 720632)
Details: caspase-6, VEID-R110 fluorogenic substrate

Caspase-6 (Homo sapiens), sequence (P55212 24-179 limits assumed): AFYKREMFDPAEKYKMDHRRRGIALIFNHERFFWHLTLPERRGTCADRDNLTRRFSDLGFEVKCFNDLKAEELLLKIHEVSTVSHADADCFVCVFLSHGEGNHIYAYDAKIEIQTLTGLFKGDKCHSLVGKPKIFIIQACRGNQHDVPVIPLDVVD
Caspase-6 (Homo sapiens), sequence (P55212 194-293 limits assumed): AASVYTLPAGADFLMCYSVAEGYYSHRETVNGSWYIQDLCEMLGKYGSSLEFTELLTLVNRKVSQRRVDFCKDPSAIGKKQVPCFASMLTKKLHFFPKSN

Cn1c(C(=O)N2CCCC(Nc3ccc(F)cc3)C2)cc2ccccc21 (stereo not given)
activity change, negative = inhibition (at 26 µM (top of the series)): inactive

CC(C)N=C(Nc1cccnc1)c1ccccc1
activity change, negative = inhibition (at 26 µM (top of the series)): inactive

CC(C)CNC(=O)C1(C)CCCCCN1C(=O)c1cccnc1 (stereo not given)
activity change, negative = inhibition (at 26 µM (top of the series)): inactive

O=C(C1CCN(c2ccc(N3CCOCC3)nn2)CC1)N1CCc2ccccc2C1
activity change, negative = inhibition (at 26 µM (top of the series)): inactive

O=[N+]([O-])c1ccc(NCCN2CCOCC2)c([N+](=O)[O-])c1
activity change, negative = inhibition (at 26 µM (top of the series)): inactive

O=C(COC(=O)c1ccc([N+](=O)[O-])o1)Nc1ccc(N2CCOCC2)cc1
activity change, negative = inhibition (at 26 µM (top of the series)): inactive

COc1ccc(N2C(=O)Cc3ccccc3C2=O)cc1
activity change, negative = inhibition (at 26 µM (top of the series)): inactive

O=[N+]([O-])c1ccc(S(=O)(=O)N2CCC3(CC2)OCCN3S(=O)(=O)c2cccs2)cc1
activity change, negative = inhibition (at 26 µM (top of the series)): inactive

Cc1nc2ccccc2n1CCOc1ccccc1
activity change, negative = inhibition (at 26 µM (top of the series)): inactive

CC(=O)Oc1cc(C(=O)OCC(=O)N2CCc3ccccc3C2)cc(OC(C)=O)c1OC(C)=O
activity change, negative = inhibition (at 26 µM (top of the series)): inactive

Cc1ccc(C)c(OCCC(=O)N2CCN(S(=O)(=O)c3cc(F)ccc3F)CC2)c1
activity change, negative = inhibition (at 26 µM (top of the series)): inactive

CN(c1ccc(C(=O)Nc2ccc3c(c2)n(C)c(=O)n3C)cc1)S(C)(=O)=O
activity change, negative = inhibition (at 26 µM (top of the series)): inactive

COc1ccccc1NC(=O)c1ccccc1S(=O)(=O)c1ccc([N+](=O)[O-])cc1
activity change, negative = inhibition (at 26 µM (top of the series)): inactive

CCN=c1sc(C(=O)Nc2ccccc2)c(C)n1CC
activity change, negative = inhibition (at 26 µM (top of the series)): inactive

C=CCOc1cccn2c(N(C=O)Cc3ccccc3)c(CC)nc12
activity change, negative = inhibition (at 26 µM (top of the series)): inactive

O=C(COC(=O)c1ccccc1OCc1ccccc1Cl)NC1CCS(=O)(=O)C1 (stereo not given)
activity change, negative = inhibition (at 26 µM (top of the series)): inactive

CNC(=O)c1ccccc1NC(=O)C1CC(=O)N(C(C)C)C1 (stereo not given)
activity change, negative = inhibition (at 26 µM (top of the series)): inactive

C[CH2][Hg][S]c1ccccc1C(=O)O
AC50: 6.91 µM

COc1ccccc1C(=O)Nc1ccc2c(c1)OC[C@@H](C)N(CC1CC1)C[C@@H](C)[C@H](OC)CN(C)C2=O
activity change, negative = inhibition (at 23.5 µM (top of the series)): inactive

CO[C@H]1CN(C)C(=O)c2ccc(NC(=O)C3CC3)cc2OC[C@@H](C)N(Cc2cccc(F)c2)C[C@@H]1C
activity change, negative = inhibition (at 26 µM (top of the series)): inactive

COc1ccc(/C(C)=N/N2CCCCC2)c(O)c1
activity change, negative = inhibition (at 26 µM (top of the series)): inactive

O=C(Nc1ccccc1)c1nc[nH]c1C(=O)Nc1ccccc1F
activity change, negative = inhibition (at 26 µM (top of the series)): inactive

COc1ccc(CCNC(=O)c2cc3cccc(OC)c3oc2=O)cc1OC
activity change, negative = inhibition (at 26 µM (top of the series)): inactive

Cc1cc2c(NC(=O)Nc3ccc(F)cc3)cccc2nn1
activity change, negative = inhibition (at 26 µM (top of the series)): inactive

CCCN1C[C@H](C)[C@H](OC)CN(C)C(=O)c2ccc(NC(=O)CC)cc2OC[C@@H]1C
activity change, negative = inhibition (at 26 µM (top of the series)): inactive

CCC1=NN(C(=O)c2ccc(Cl)cc2)C(O)(c2ccc(C)cc2)C1 (stereo not given)
activity change, negative = inhibition (at 26 µM (top of the series)): inactive

Cc1ccc(NC(=O)C(c2ccccc2)N2CCN(CC(=O)N3CCOCC3)CC2)cc1Cl (stereo not given)
activity change, negative = inhibition (at 26 µM (top of the series)): inactive

CC1CCCCC1NS(=O)(=O)c1ccc(S(=O)(=O)N2CCN(CCC#N)CC2)cc1 (stereo not given)
activity change, negative = inhibition (at 26 µM (top of the series)): inactive

CCCC(=O)Nc1ccc2c(c1)OC[C@@H](C)N(C(=O)CC)C[C@@H](C)[C@@H](OC)CN(C)C2=O
activity change, negative = inhibition (at 26 µM (top of the series)): inactive

COCC(=O)Nc1ccc2c(c1)OC[C@@H](C)N(CC1CC1)C[C@@H](C)[C@@H](OC)CN(C)C2=O
activity change, negative = inhibition (at 26 µM (top of the series)): inactive

Cc1nc2ccc(NS(=O)(=O)c3c(F)cc(F)cc3Br)cc2s1
activity change, negative = inhibition (at 26 µM (top of the series)): inactive

c1ccc(CCNc2ccc3ncc(-c4cccc5ccccc45)n3n2)nc1
activity change, negative = inhibition (at 26 µM (top of the series)): inactive

CN(C)CCCN(C(=O)c1ccc([N+](=O)[O-])s1)c1nc2cc3c(cc2s1)OCCO3
activity change, negative = inhibition (at 8 µM (top of the series)): inactive

CCN(CC)CCN(CC)Cc1ccccc1Br
activity change, negative = inhibition (at 26 µM (top of the series)): inactive

COc1nc(C)c2cc(C)oc2n1
activity change, negative = inhibition (at 26 µM (top of the series)): inactive

CN1c2ccccc2Sc2cc(N)ccc21
activity change, negative = inhibition (at 26 µM (top of the series)): inactive

O=C(Nc1nc2ccc([N+](=O)[O-])cc2s1)c1ccncc1
activity change, negative = inhibition (at 26 µM (top of the series)): inactive

C[C@@H]1CN([C@H](C)CO)C(=O)c2cc(Br)cnc2O[C@H]1CN(C)CC1CCCC1
activity change, negative = inhibition (at 26 µM (top of the series)): inactive

O=C(Nc1cccc(F)c1)c1coc(=O)c(Br)c1
activity change, negative = inhibition (at 26 µM (top of the series)): inactive

CN1CCN(c2cc(CNC[C@H]3O[C@@H](n4cnc5c(=O)[nH]c(N)nc54)[C@H](O)[C@@H]3O)ccc2F)CC1
activity change, negative = inhibition (at 26 µM (top of the series)): inactive

CCCN1C[C@@H](C)[C@@H](OC)CN(C)C(=O)c2ccc(NC(=O)c3ccccc3)cc2OC[C@@H]1C
activity change, negative = inhibition (at 26 µM (top of the series)): inactive

CO[C@@H]1CN(C)C(=O)c2ccc(NC(C)=O)cc2OC[C@H](C)N(C(=O)CC2CC2)C[C@@H]1C
activity change, negative = inhibition (at 26 µM (top of the series)): inactive

COC(=O)c1cccc(NC(=O)c2cccc(N3C(=O)CCC3=O)c2)c1
activity change, negative = inhibition (at 26 µM (top of the series)): inactive

Cc1ccc(NC(=O)c2ccc([N+](=O)[O-])o2)cc1S(=O)(=O)N1CCOCC1
activity change, negative = inhibition (at 26 µM (top of the series)): inactive

CCCCOc1ccc(C(=O)OCC(=O)N2CCOCC2)cc1
activity change, negative = inhibition (at 26 µM (top of the series)): inactive

CCC(=O)Nc1ccc2c(c1)OC[C@H](C)N(C(=O)C1CC1)C[C@H](C)[C@@H](OC)CN(C)C2=O
activity change, negative = inhibition (at 26 µM (top of the series)): inactive

CO[C@@H]1CN(C)C(=O)c2ccc(NC(=O)C3CC3)cc2OC[C@@H](C)N(Cc2cccc(F)c2)C[C@@H]1C
activity change, negative = inhibition (at 23.5 µM (top of the series)): inactive

COP(=O)(OC)c1ccc(NCc2cc(O)ccc2O)cc1
activity change, negative = inhibition (at 26 µM (top of the series)): inactive

COc1ccc(N2CCN(C(=O)CCNS(=O)(=O)c3ccc(C)cc3)CC2)cc1
activity change, negative = inhibition (at 26 µM (top of the series)): inactive

COc1ccccc1C(=O)Nc1ccc2c(c1)OC[C@@H](C)N(CC1CC1)C[C@H](C)[C@H](OC)CN(C)C2=O
activity change, negative = inhibition (at 26 µM (top of the series)): inactive

CCCCn1nnnc1C(CCSC)N1CCC(n2c(=O)[nH]c3ccccc32)CC1 (stereo not given)
activity change, negative = inhibition (at 26 µM (top of the series)): inactive

O=C(Nc1ccc2c(c1)OCCO2)C1CCCC1
activity change, negative = inhibition (at 26 µM (top of the series)): inactive

CO[C@@H]1CN(C)C(=O)c2ccc(NC(=O)C3CC3)cc2OC[C@@H](C)N(Cc2ccccc2)C[C@@H]1C
activity change, negative = inhibition (at 26 µM (top of the series)): inactive

Cc1csc(=O)n1CC(=O)OCC(=O)NCc1ccc(F)cc1
activity change, negative = inhibition (at 26 µM (top of the series)): inactive

CCCC(=O)Nc1ccc2c(c1)OC[C@@H](C)NC[C@@H](C)[C@@H](OC)CN(C)C2=O
activity change, negative = inhibition (at 26 µM (top of the series)): inactive

CCC1=NN(C(=O)c2ccccc2O)C(O)(c2ccccc2)C1 (stereo not given)
activity change, negative = inhibition (at 26 µM (top of the series)): inactive

CCN(C(=O)COC(=O)c1oc2ccccc2c1C)c1c(N)n(Cc2ccccc2)c(=O)[nH]c1=O
activity change, negative = inhibition (at 26 µM (top of the series)): inactive

CN1CCN(CC(=O)Nc2ccc(Cl)cc2Cl)CC1
activity change, negative = inhibition (at 26 µM (top of the series)): inactive

COc1cccc(C(=O)OC(C)C(=O)NCC2CCCCC2)c1 (stereo not given)
activity change, negative = inhibition (at 26 µM (top of the series)): inactive

CCC1CCc2sc(C(=O)NNC(=O)c3ccncc3)cc2C1 (stereo not given)
activity change, negative = inhibition (at 26 µM (top of the series)): inactive

C/C(=N\NC(=O)c1ccccc1O)c1ccc(NC(=O)Cc2ccccc2)cc1
activity change, negative = inhibition (at 26 µM (top of the series)): inactive

CC(C)CNC(=O)c1cccc2c(-c3ccc(F)c(F)c3)coc12
activity change, negative = inhibition (at 26 µM (top of the series)): inactive

CCOC(=O)c1c(NC(=O)C2CC(Cl)=CCC2C(=O)O)sc2c1CC(C)(C)OC2 (stereo not given)
activity change, negative = inhibition (at 26 µM (top of the series)): inactive

CCC(=O)Nc1ccc2c(c1)OC[C@H](C)N(C(=O)CC)C[C@@H](C)[C@H](OC)CN(C)C2=O
activity change, negative = inhibition (at 26 µM (top of the series)): inactive

COc1cccc(CNC(=O)CCn2ccc3cc(S(=O)(=O)N4CCCC4)ccc32)c1
activity change, negative = inhibition (at 26 µM (top of the series)): inactive

CCOc1ccc(N(CC(=O)Nc2cc(Cl)ccc2C)S(C)(=O)=O)cc1
activity change, negative = inhibition (at 26 µM (top of the series)): inactive

COc1ccc2cc(C(c3nnnn3C3CCCC3)N3CCc4ccccc4C3)c(=O)[nH]c2c1 (stereo not given)
activity change, negative = inhibition (at 26 µM (top of the series)): inactive

CC(C)c1ccc(C(=O)N2CCCC(c3cc(C(=O)Nc4ccccc4Cl)no3)C2)cc1 (stereo not given)
activity change, negative = inhibition (at 26 µM (top of the series)): inactive

CCCC(=O)Nc1ccc2c(c1)OC[C@@H](C)N(C)C[C@@H](C)[C@H](OC)CN(C)C2=O
activity change, negative = inhibition (at 26 µM (top of the series)): inactive

COc1ccc(CN=C(N)N=C(N)N)cc1Cl
activity change, negative = inhibition (at 26 µM (top of the series)): inactive

Nc1ccc(C(=O)N/N=C/c2cn(Cc3ccc(F)cc3)c3ccccc23)cc1
activity change, negative = inhibition (at 26 µM (top of the series)): inactive

CCCCCn1nnnc1-c1nc2cc(C)c(C)cc2[nH]c1=O
activity change, negative = inhibition (at 26 µM (top of the series)): inactive

N[C@@H](Cc1cc(I)c(O)c(I)c1)C(=O)O
activity change, negative = inhibition (at 26 µM (top of the series)): inactive

COc1ccccc1C(=O)Nc1ccc2c(c1)OC[C@H](C)N(CC1CC1)C[C@@H](C)[C@H](OC)CN(C)C2=O
activity change, negative = inhibition (at 26 µM (top of the series)): inactive

CC(C)CNC(=O)C1(C)CCCN1C(=O)Cc1cccc2ccccc12 (stereo not given)
activity change, negative = inhibition (at 26 µM (top of the series)): inactive

CCOc1ncccc1C(=O)OC(C)C(=O)Nc1ccc(N2CCOCC2)cc1 (stereo not given)
activity change, negative = inhibition (at 26 µM (top of the series)): inactive

CCC(C)CN1C(=O)CN(S(C)(=O)=O)CC1(C)C(=O)Nc1ccc2c(c1)OCCO2 (stereo not given)
activity change, negative = inhibition (at 26 µM (top of the series)): inactive

CCCc1cc(-c2n[nH]c(C(=O)OCC)c2-c2cscn2)c(O)cc1O
activity change, negative = inhibition (at 26 µM (top of the series)): inactive

CO[C@@H]1CN(C)C(=O)c2ccc(NC(=O)c3ccccc3)cc2OC[C@H](C)N(C(=O)C2CC2)C[C@@H]1C
activity change, negative = inhibition (at 26 µM (top of the series)): inactive

CCOC(=O)C1=C(COC(=O)c2ccc([N+](=O)[O-])s2)NC(=O)NC1C (stereo not given)
activity change, negative = inhibition (at 26 µM (top of the series)): inactive

CN1C(=O)NC(=O)C(N=Nc2ccc(Cl)cc2)C1=O (stereo not given)
activity change, negative = inhibition (at 26 µM (top of the series)): inactive

Cc1[nH]ncc1Nc1c(C(C)C)cccc1C(C)C
activity change, negative = inhibition (at 26 µM (top of the series)): inactive

Fc1cccc(Nc2nc(-c3ccncc3)nc3ccccc23)c1
activity change, negative = inhibition (at 26 µM (top of the series)): inactive

CCCC(=O)Nc1ccc2c(c1)OC[C@H](C)N(Cc1ccc(F)cc1)C[C@H](C)[C@@H](OC)CN(C)C2=O
activity change, negative = inhibition (at 26 µM (top of the series)): inactive

O=C1c2ccccc2[C@@H]2C[C@@H](O)[C@H](Nc3cccc4ccccc34)CCN12
activity change, negative = inhibition (at 26 µM (top of the series)): inactive
